Activity calls are given as the source filed them. The rule behind the calls is not given here.
Columns and labels:
Urease = Urease (Canavalia ensiformis, UniProt P07374); experiment: Inhibition of jack bean urease assessed as ammonia production after 30 mins by indophenol method
[1] = biological target: Urease (Canavalia ensiformis) (UniProt P07374); settings: 0.01 to 0.001 uM
Urease (Canavalia ensiformis), sequence (P07374 whole entry, looked up): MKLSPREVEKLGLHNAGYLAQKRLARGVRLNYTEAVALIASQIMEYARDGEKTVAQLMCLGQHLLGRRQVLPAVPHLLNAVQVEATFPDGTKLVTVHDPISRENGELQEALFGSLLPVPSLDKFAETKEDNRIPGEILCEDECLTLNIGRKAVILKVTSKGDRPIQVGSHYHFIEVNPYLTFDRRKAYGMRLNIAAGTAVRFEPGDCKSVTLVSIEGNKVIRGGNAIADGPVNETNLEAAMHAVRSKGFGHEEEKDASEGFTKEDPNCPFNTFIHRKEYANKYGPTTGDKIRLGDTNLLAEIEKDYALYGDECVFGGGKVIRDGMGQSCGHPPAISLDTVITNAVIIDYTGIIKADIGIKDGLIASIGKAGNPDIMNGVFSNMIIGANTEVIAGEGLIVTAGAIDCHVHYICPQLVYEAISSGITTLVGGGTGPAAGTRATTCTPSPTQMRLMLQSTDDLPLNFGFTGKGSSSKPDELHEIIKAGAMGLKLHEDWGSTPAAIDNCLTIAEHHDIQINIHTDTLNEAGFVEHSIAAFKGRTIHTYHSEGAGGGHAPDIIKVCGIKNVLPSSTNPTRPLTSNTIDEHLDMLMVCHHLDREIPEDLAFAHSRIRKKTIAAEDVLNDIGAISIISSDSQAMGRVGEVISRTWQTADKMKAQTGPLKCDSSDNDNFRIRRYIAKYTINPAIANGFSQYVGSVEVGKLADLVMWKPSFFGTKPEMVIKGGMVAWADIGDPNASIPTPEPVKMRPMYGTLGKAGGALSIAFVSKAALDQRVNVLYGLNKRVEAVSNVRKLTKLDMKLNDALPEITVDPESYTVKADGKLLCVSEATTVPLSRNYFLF

Urease, sequence (P07374 whole entry): as the sequence (P07374 whole entry, looked up) above

Compound | IC50 (Urease) | Ki (Urease) | inhibition [1]
NC(=S)N/N=C/c1ccccc1Cl | 0.215 µM | 0.17 µM | –
N/C(S)=N/N=C/c1ccc([N+](=O)[O-])cc1 | 0.547 µM | 0.497 µM | –
NC(N)=S [THIOUREA] | – | 19.6 µM | –
NC(=S)N/N=C/c1ccc(O)cc1 | 0.682 µM | 0.391 µM | –
NC(=S)N/N=C/c1cccc(Cl)c1 | 0.67 µM | 0.625 µM | –
N/C(S)=N/N=C/c1cccc(Br)c1 | 0.767 µM | 0.67 µM | –
COc1ccc(/C=N/NC(N)=S)cc1 | 0.887 µM | 0.807 µM | –
NC(=S)N/N=C/c1ccc(Br)cc1 | 0.707 µM | 0.77 µM | –
NC(=S)N/N=C/c1ccc(Cl)cc1 | 0.41 µM | 0.398 µM | –
COc1cc(/C=N/NC(N)=S)cc(OC)c1OC | 0.989 µM | 0.91 µM | –
NC(=S)N/N=C/c1cccc(O)c1O | 0.22 µM | 0.127 µM | –
COc1cccc(/C=N/NC(N)=S)c1 | 0.177 µM | 0.127 µM | –
COc1ccc(/C=N/NC(N)=S)cc1OCc1ccccc1 | 0.33 µM | 0.191 µM | –
CN(C)c1ccc(/C=N/NC(N)=S)cc1 | 0.127 µM | 0.122 µM | –
C/C=C/C=N/NC(N)=S | 0.746 µM | 0.43 µM | –
NC(=S)N/N=C/C=C/c1ccccc1 | 0.457 µM | 0.407 µM | –
N/C(S)=N/N=C/c1cccc([N+](=O)[O-])c1 | 0.102 µM | 0.09 µM | Active
COc1cc(/C=N/NC(N)=S)cc(OC)c1O | 0.233 µM | 0.134 µM | –
NC(=S)N/N=C/c1ccccc1OCc1ccccc1 | 0.263 µM | 0.152 µM | –
